What was measured:
[1] = tested on: chondrogenic differentiation of hMSCs; experiment: Alcian blue staining of chondrogenic micromass pellets; assay type: cell-based, human; settings: 21 days; 1 ng/mL TGF-β1 with 10 μg/mL GAG
Protocol: (§1) In order to assess the effects of HS16+ve on the chondrogenic differentiation of hMSCs in vitro, it was first necessary to establish the effects of TGF-β1 alone. Chondrogenic differentiation was carried out using a modified micromass culture system. [Zhang, L., et al., Chondrogenic differentiation of human mesenchymal stem cells: a comparison between micromass and pellet culture systems. Biotechnol Lett, 2010. 32(9): p. 1339-1346.]. Briefly, passage 4 hMSCs were harvested and resuspended in chemically defined chondrogenic media (PT-3003, Lonza, MD, USA) at 2×10^7 cells/mL. Droplets of 12.5 μL were then seeded into the middle of each well in a 24-well plate and left to adhere at 37° C. for 2 h, after which, 500 μL of chondrogenic media supplemented with either 1 or 10 ng/mL of TGF-β1 (100-210, PeproTech) alone or with either 5 or 10 μg/mL of heparin (Sigma-Aldrich), porcine mucosal HS (HSPM) (Celsus laboratories), HS16+ve or HS16-ve was added to each well. The cell droplets coalesced into spherical masses after 24 h. Media was changed every 3 days and the micromasses harvested on days 3, 7, 14 and 21.

[2] = tested on: chondrogenic differentiation of hMSCs; experiment: qPCR of chondrogenic micromass pellets (Example 2); assay type: cell-based, human; settings: for SOX9 expression / COMP expression: day 3
Protocol: Total RNA was isolated from chondrogenic micromass pellets using TRIZOL reagent (Life Technologies, CA, USA) according to the manufacturer's protocol. Reverse transcription was carried out on 1 μg RNA using the SuperScript® VILO™ cDNA Synthesis Kit (Life Technologies) following the manufacturer's instructions, with the incubation at 42° C. being carried out for 2 h instead of 1 h. Each qPCR contained 40 ng cDNA, 1 μL TaqMan® primer-probe mix per gene, and 10 μL Taqman® Fast Universal PCR Master Mix (Life Technologies) in a final volume of 20 μL. Thermal cycling conditions were 95° C. for 20 s, followed by 45 cycles of 95° C. for 1 s and 60° C. for 20 s. Each qPCR was run in duplicate and gene expression was normalised to HPRT1 expression to obtain the ΔCt value. The average value of biological triplicates was taken. Chondrogenic micromass pellets cultured in media without GAG or TGF-β1 were used as controls (ΔΔCt). Relative expression levels for each primer set were expressed as fold changes by the 2-ΔΔCt method [Livak, K. J. and T. D. Schmittgen, Analysis of Relative Gene Expression Data Using Real-Time Quantitative PCR and the 2-ΔΔCT Method. Methods, 2001. 25(4): p. 402-408]. The following TaqMan® primer-probe assays (Life technologies) were used:
as §1
Next, hMSCs were differentiated for 21 days in the presence of 1 ng/mL TGF-β1 alone (1 TGF-β1) or in combination with 10 μg/mL of GAG (heparin, HSPM, HS16+ve or HS16−ve) or with 10 ng/mL TGF-β1 (10 TGF-β1) as a positive control.

[3] = 10 μg/mL heparin with 10 ng/mL TGF-β1

Substance: heparin
- GAG deposition by Alcian blue staining relative to 1 ng/mL TGF-β1 alone [1]: slight increase in GAG deposition
- COMP expression increase relative to 1 ng/mL TGF-β1 alone ([2]; 21 days, 1 ng/mL TGF-β1 with 10 μg/mL GAG): ~2.5 fold
- SOX9 expression ([2]; 5 μg/mL heparin, regardless of the amount of TGF-β1): did not significantly alter
- SOX9 expression ([2]; 10 μg/mL heparin on its own): did not affect SOX9 expression
- SOX9 expression ([2]; 10 μg/mL heparin with 1 ng/mL TGF-β1): increase the expression of SOX9
- COMP expression [2, 3]: reduced COMP expression levels
- SOX9 expression [2, 3]: unable to bring about any change in SOX9 expression
- COMP expression ([2]; 5 or 10 μg/mL heparin on their own): slightly reduce
- COMP expression ([2]; either dose of heparin with 10 ng/mL TGF-β1): unable to elicit a further increase in COMP expression
- COMP expression ([2]; heparin with 1 ng/mL TGF-β1): increase COMP expression levels in a dose dependent manner
- Aggrecan expression ([2]; day 21, 1 ng/mL TGF-β1 with 10 μg/mL GAG): similar
